Patent publication EP0812190B1 (priority 1993, dated 1995)
Read-outs that look alike come from different tables or passages of the source.

Tests used:
guinea-pig ileum [1] = assay: tissue or blood; details: Cavia porcellus, read-out: Percent relaxation
guinea-pig ileum [2] = tested on: guinea-pig ileum
[3] = tested on: passive avoidance response
Protocol: [R] (+)PAI or [S] (-)PAI were administered according to one of the following protocols.
Protocol A - Nursing mothers were given a dose of either isomer of 1-1.5 mg/kg/day in drinking water until weaning at 21 days. Following that, the weaned offsprings were directly treated with the same dose for 20 days. Treatment was terminated at 40 days and the test was performed at 60 days, that is 20 days after the last dose of the drug.
Protocol B - The dose was reduced to 0.5 mg/kg/day administered to the nursing mother until weaning at 21 days, then directly to the young rats to 60 days at which time the test was performed. ,
Passive Avoidance Test - The apparatus consisted of a lit chamber adjoining a dark chamber and a sliding door separating the two. At training, a rat was placed in the lit chamber for 30 seconds, and then the door was opened. The rat moved to the dark chamber with a latency that was recorded. Upon entry of the rat into the dark compartment, the door was closed and a 0.3 mA foot-shock was delivered for 3 seconds.

[4] = tested on: anoxia-induced hyperactive syndrome; details: 0.5 mg/kg/day to nursing mothers
Protocol: Anoxia was performed on rat pups on the first post-natal day. They were placed in a glass chamber and exposed to 100% nitrogen for 25 minutes. They were resuscitated by intermittent massage softly applied to the chest and then returned to their respective mothers. Control rats received the same treatment but with air instead of nitrogen.
Locomotion was measured in 6 fully computerized cages (28 x 28 cm) by recording the number of crossings over a given period of time. Crossings of grid infrared beams at 4-cm intervals initiated electrical impulses which fed a counter.
Recordings of motor activity were made at the ages of 15 and 20 days, over a period of 15 minutes.

MAO-B [5] = molecular target: T1, MAO-B (Rattus norvegicus, UniProt P19643); details: 1 mg/kg i.p. single dose; whole brain
T1 sequence (P19643 1-520): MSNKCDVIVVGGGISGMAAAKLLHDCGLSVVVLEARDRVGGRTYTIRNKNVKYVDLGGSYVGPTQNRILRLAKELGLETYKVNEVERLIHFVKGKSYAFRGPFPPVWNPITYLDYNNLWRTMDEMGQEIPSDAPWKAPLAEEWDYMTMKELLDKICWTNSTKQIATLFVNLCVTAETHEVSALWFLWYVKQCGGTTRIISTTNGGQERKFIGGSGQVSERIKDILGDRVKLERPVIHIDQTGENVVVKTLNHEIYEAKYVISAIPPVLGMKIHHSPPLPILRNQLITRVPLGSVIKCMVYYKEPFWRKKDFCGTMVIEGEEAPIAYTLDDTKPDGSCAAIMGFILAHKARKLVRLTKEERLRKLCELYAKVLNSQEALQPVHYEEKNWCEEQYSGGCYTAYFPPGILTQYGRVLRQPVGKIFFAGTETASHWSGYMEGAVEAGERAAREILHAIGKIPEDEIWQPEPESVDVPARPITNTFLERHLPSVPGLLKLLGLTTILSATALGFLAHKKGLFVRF
Protocol: Activity of MAO-B was determined in whole brain tissues as described hereinabove.

MAO-A = molecular target: T2, MAO-A (Rattus norvegicus, UniProt P21396); assay: Inhibition of MAO activity in vivo, acute treatment, MAO-A; set-up: MAO activity determined in brain and liver using the general technique described above; from tissue; host or cells: brain and liver of treated rats
T2 sequence (P21396 1-526): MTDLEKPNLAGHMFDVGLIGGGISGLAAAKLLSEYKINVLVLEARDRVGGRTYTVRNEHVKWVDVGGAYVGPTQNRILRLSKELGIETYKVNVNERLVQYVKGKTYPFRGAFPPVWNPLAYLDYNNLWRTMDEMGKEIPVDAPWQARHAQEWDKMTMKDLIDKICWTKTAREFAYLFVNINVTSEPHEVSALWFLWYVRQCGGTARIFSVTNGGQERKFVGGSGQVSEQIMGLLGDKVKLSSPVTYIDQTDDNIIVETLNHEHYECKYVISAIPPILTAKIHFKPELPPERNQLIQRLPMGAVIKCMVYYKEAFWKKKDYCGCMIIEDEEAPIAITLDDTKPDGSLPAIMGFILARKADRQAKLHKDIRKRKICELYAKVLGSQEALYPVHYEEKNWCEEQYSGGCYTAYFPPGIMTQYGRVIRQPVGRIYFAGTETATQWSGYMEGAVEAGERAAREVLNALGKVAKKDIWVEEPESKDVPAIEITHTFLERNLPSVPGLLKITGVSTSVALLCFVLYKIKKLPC
Protocol: Groups of three rats were used for each dose level of inhibitor, and MAO activity determined in brain and liver using the general technique described above. The amount of protein in each incubation was determined using the Folin-Lowry method, and enzyme activity calculated as nmol of substrate metabolized per hour of incubation for each mg of protein. Activity of MAO in tissues from animals treated with inhibitors was expressed as a percentage of the enzyme activity in a group of control animals administered vehicle (water for oral administration, 0.9% saline for ip injection) and killed as above.

guinea-pig ileum [6] = details: bethanechol 0.8 µM; PAI HCl 20 µM
MAO-B [7] = molecular target: T1, MAO-B; assay: in vivo; details: po, read-out: inhibition of brain MAO-B
Protocol: (+)PAI or the racemic mixture at three dose levels (0.05, 0.1 and 0.5mg/kg) by oral administration, one dose daily for 21 days, and decapitated 2 hours after the last dose.

rabbit jejunum = assay: Tyramine potentiation in rabbit jejunum preparation
[8] = Protocol A, Anoxia-lesioned rats
[9] = Protocol B, Anoxia-lesioned rats
[10] = dose producing 50% inhibition, rat, i.p., 1h
[11] = dose producing 50% inhibition, rat, p.o., 2h

C#CCN[C@@H]1CCc2ccccc21 [[R](+)PAI, R(+)-N-propargyl-1-aminoindan]
inhibition at 2 µM (guinea-pig ileum [1]): 0% | inhibition at 4 µM (guinea-pig ileum [1]): 0% | inhibition at 10 µM (guinea-pig ileum [1]): 0% | inhibition at 40 µM (guinea-pig ileum [1]): 37% | inhibition at 400 µM (guinea-pig ileum [1]): 100% | inhibition at 700 µM (guinea-pig ileum [1]): 100% | gram-tension (guinea-pig ileum [2]; bethanechol 0.8 µM, 400 µM PAI HCl enantiomer): 0.2 gram-tension | gram-tension (guinea-pig ileum [2]; bethanechol 2 µM, 400 µM enantiomer): 0.3 gram-tension | gram-tension (guinea-pig ileum [2]; bethanechol 4 µM, 400 µM enantiomer): 0.7 gram-tension | gram-tension (guinea-pig ileum [2]; bethanechol 8 µM, 400 µM enantiomer): 1.0 gram-tension | gram-tension (guinea-pig ileum [2]; bethanechol 20 µM, 400 µM enantiomer): 2.0 gram-tension | gram-tension (guinea-pig ileum [2]; bethanechol 40 µM, 400 µM enantiomer): 2.8 gram-tension | gram-tension (guinea-pig ileum [2]; bethanechol 80 µM, 400 µM enantiomer): 3.1 gram-tension | gram-tension (guinea-pig ileum [2]; bethanechol 200 µM, 400 µM enantiomer): 4.3 gram-tension | latency After Electroshock [3, 8]: 239 ± 99 s | latency Before Electroshock [3, 8]: 49 ± 10 s | percent increase of latency After Electroshock ([3]; Protocol A, Anoxia-lesioned rats, versus corresponding anoxia group): 19% | latency After Electroshock ([3]; Protocol A, Control rats): 220 ± 100 s | percent increase of latency After Electroshock ([3]; Protocol A, Control rats, versus corresponding control group): +9% | latency Before Electroshock ([3]; Protocol B (0.5 mg/kg/day), Control rats): 48 ± 11 s | latency After Electroshock [3, 9]: 137 ± 126 s | latency Before Electroshock [3, 9]: 52 ± 12 s | percent increase of latency After Electroshock [3, 9]: +15% | latency After Electroshock ([3]; Protocol B, Control rats): 128 ± 119 s | percent increase of latency After Electroshock ([3]; Protocol B, Control rats): +23% | numbers of crossings of infrared beam grid over 15 minutes ([4]; Anoxia-lesioned, 15-day old rats): 276 ± 186(15)a | numbers of crossings of infrared beam grid over 15 minutes ([4]; Anoxia-lesioned, 20-day old rats): 737 ± 150 (16) c | numbers of crossings of infrared beam grid over 15 minutes ([4]; Control, 15-day old rats): 254 ± 149(11)c | numbers of crossings of infrared beam grid over 15 minutes ([4]; Control, 20-day old rats): 719 ± 110(13) | time of maximal inhibition of MAO-B after injection (MAO-B [5]): 6 h | inhibition of MAO-A activity (MAO-A; brain, 0.5mg/kg i.p., single dose): 20% | inhibition of MAO-A (MAO-A; brain, 0.5mg/kg oral, single dose): no detectable inhibition | IC-50 MAO-A I.P. BRAIN (MAO-A; [10]): 1.2 mg/kg | IC-50 MAO-A I.P. LIVER (MAO-A; [10]): 5 mg/kg | IC-50 MAO-A P.O. BRAIN (MAO-A; [11]): >5 mg/kg | IC-50 MAO-A P.O. LIVER (MAO-A; [11]): >5 mg/kg | Percent relaxation (guinea-pig ileum [6]): 25% | inhibition at 0.1 mg/kg (MAO-B [7]): > 80% | Percent relaxation (rabbit jejunum; PAI HCl enantiomer alone 0.2-4.0 µM): 0% | Percent relaxation (rabbit jejunum; tyramine 40 µM after 0.2 µM PAI HCl enantiomer): 67% | Percent relaxation (rabbit jejunum; tyramine 40 µM after 2 µM PAI HCl enantiomer): 88% | Percent relaxation (rabbit jejunum; tyramine 40 µM after 40 µM PAI HCl enantiomer): 85-90%
